From patent US20230172930A1, “USE OF COMPLEMENT FACTOR D INHIBITORS ALONE OR IN COMBINATION WITH ANTI-C5 ANTIBODIES FOR TREATMENT OF PAROXYSMAL NOCTURNAL HEMOGLOBINURIA” (Alexion Pharmaceuticals, Inc., priority 2020, published 2023)
“And” between values parts separate entries of the source, which are not always exact repeats. Identical values can stand only once.

Columns and labels:
[1] = Phase 2 study: PNH clone size and C3 fragment deposition on erythrocytes by flow cytometry (anti-human C3d antibody); type: in vivo
Protocol: (§1) FIGS. 4A-4D are graphs depicting the effect on complement biomarkers and PNH clone size. […] Arithmetic mean and standard derivation (SD) were shown for all but the clone size of C3d^+ PNH erythrocytes where geometric mean was used, and the range was shown at each time point. NHS, normal human serum; BL, baseline; LLN, lower limit normal; ULN, upper limit normal.
(§2) Pharmacodynamics were determined by measuring serum AP activity with AP hemolysis assay. Serum CP activity, Plasma Bb concentration, serum FD, and C3 concentrations were also monitored. Complement tests were conducted by a central lab using commercial kits, with the exception of AP hemolysis assay which was conducted internally for exploratory purposes. At each AP hemolysis run, a single normal human serum sample was included in addition to the patient serum samples so hemolysis values of individual patient serum samples could be standardized to the hemolysis value of the normal human serum sample. Finally, PNH clone size and C3 fragment deposition on erythrocytes was measured using flow cytometry with FITC conjugated anti-human C3d antibody.

PNH erythrocytes = test: as above; type: in vivo
Protocol: as §1, §2

[2] = N=11, Baseline, before danicopan, on eculizumab
[3] = Patient A, Baseline, before danicopan, on eculizumab 900 mg q14d
[4] = Patient B, Baseline, before danicopan, on eculizumab 1200 mg q14d
[5] = Patient C, Baseline, before danicopan, on eculizumab 900 mg q14d
[6] = Patient C, Week 12, danicopan 150 mg TID + eculizumab 900 mg q14d
[7] = Patient C, Week 24, danicopan 150 mg TID + eculizumab 900 mg q14d
[8] = Patient D, Baseline, before danicopan, on eculizumab 900 mg q14d
[9] = Patient D, Week 12, danicopan 150 mg TID + eculizumab 900 mg q14d
[10] = Patient D, Week 24, danicopan 150 mg TID + eculizumab 900 mg q14d
[11] = Patient E, Baseline, before danicopan, on eculizumab 1200 mg q14d
[12] = Patient E, Week 12, danicopan 150 mg TID + eculizumab 1200 mg q14d
[13] = Patient E, Week 24, danicopan 150 mg TID + eculizumab 1200 mg q14d
[14] = Patient F, Baseline, before danicopan, on eculizumab 900 mg q14d
[15] = Patient F, Week 12, danicopan 150 mg TID + eculizumab 900 mg q14d
[16] = Patient F, Week 24, danicopan 150 mg TID + eculizumab 900 mg q14d
[17] = Patient G, Baseline, before danicopan, on eculizumab 1500 mg q14d
[18] = Patient G, Week 12, danicopan 100 mg TID + eculizumab 1500 mg q14d
[19] = Patient G, Week 24, danicopan 100 mg TID + eculizumab 1500 mg q14d
[20] = Patient H, Baseline, before danicopan, on eculizumab 900 mg q14d
[21] = Patient H, Week 12, danicopan 200 mg TID + eculizumab 900 mg q14d
[22] = Patient I, Baseline, before danicopan, on eculizumab 900 mg q14d
[23] = Patient I, Week 12, danicopan 100 mg TID + eculizumab 900 mg q14d
[24] = Patient J, Baseline, before danicopan, on eculizumab 1200 mg q14d
[25] = Patient J, Week 12, danicopan 100 mg TID + eculizumab 1200 mg q14d
[26] = Patient J, Week 24, danicopan 200 mg TID + eculizumab 1200 mg q14d

Q: What does the source list for `CC(=O)c1nn(CC(=O)N2C[C@H](F)C[C@H]2C(=O)Nc2cccc(Br)n2)c2ccc(-c3cnc(C)nc3)cc12` [Danicopan, danicopan]?
A: clone size of PNH granulocytes, mean±SD ([1]; Week 24): 95±7.2%; clone size of PNH granulocytes, mean±SD ([1]; baseline): 92±9.2%; PNH RBC clone size, mean (PNH erythrocytes; N=7, Week 24, danicopan 100-200 mg TID + eculizumab): 84±22.1% and 84%; C3d^+ PNHRBCs, geometric mean (PNH erythrocytes; [2]): 22% and 22.2%; PNH RBC clone size, mean (PNH erythrocytes; [2]): 54±24.9% and 54%; C3d^+ PNHRBCs, geometric mean (PNH erythrocytes; N=11, Week 24, danicopan 100-200 mg TID + eculizumab): 6.7% and 6.68%; C3d^+ PNHRBCs (PNH erythrocytes; [3]): 6.30%; PNH RBC clone size (PNH erythrocytes; [3]): 41%; PNH RBC clone size (PNH erythrocytes; Patient A, Week 12, danicopan 150 mg TID + eculizumab 900 mg q14d): 83%; C3d^+ PNHRBCs (PNH erythrocytes; Patient A, Week 24, danicopan 150 mg TID + eculizumab 900 mg q14d): 2.20%; C3d^+ PNHRBCs (PNH erythrocytes; [4]): 8.20%; PNH RBC clone size (PNH erythrocytes; [4]): 80%; PNH RBC clone size (PNH erythrocytes; Patient B, Week 12, danicopan 100 mg TID + eculizumab 900 mg q14d): 89%; C3d^+ PNHRBCs (PNH erythrocytes; Patient B, Week 24, danicopan 100 mg TID + eculizumab 900 mg q14d): 1.00%; C3d^+ PNHRBCs (PNH erythrocytes; [5]): 17.5%; PNH RBC clone size (PNH erythrocytes; [5]): 22%; C3d^+ PNHRBCs (PNH erythrocytes; [6]): 18.6%; PNH RBC clone size (PNH erythrocytes; [6]): 59%; C3d^+ PNHRBCs (PNH erythrocytes; [7]): 16.7%; PNH RBC clone size (PNH erythrocytes; [7]): 51%; C3d^+ PNHRBCs (PNH erythrocytes; [8]): 15.9%; PNH RBC clone size (PNH erythrocytes; [8]): 52%; C3d^+ PNHRBCs (PNH erythrocytes; [9]): 0.200%; PNH RBC clone size (PNH erythrocytes; [9]): 99%; C3d^+ PNHRBCs (PNH erythrocytes; [10]): 5.20%; PNH RBC clone size (PNH erythrocytes; [10]): 100%; C3d^+ PNHRBCs (PNH erythrocytes; [11]): 21.3%; PNH RBC clone size (PNH erythrocytes; [11]): 21%; C3d^+ PNHRBCs (PNH erythrocytes; [12]): 11.8%; PNH RBC clone size (PNH erythrocytes; [12]): 37%; C3d^+ PNHRBCs (PNH erythrocytes; [13]): 4.90%; PNH RBC clone size (PNH erythrocytes; [13]): 53%; C3d^+ PNHRBCs (PNH erythrocytes; [14]): 71.0%; PNH RBC clone size (PNH erythrocytes; [14]): 95%; C3d^+ PNHRBCs (PNH erythrocytes; [15]): 48.0%; PNH RBC clone size (PNH erythrocytes; [15]): 99%; C3d^+ PNHRBCs (PNH erythrocytes; [16]): 53.4%; PNH RBC clone size (PNH erythrocytes; [16]): 98%; C3d^+ PNHRBCs (PNH erythrocytes; [17]): 80.0%; PNH RBC clone size (PNH erythrocytes; [17]): 62.8%; C3d^+ PNHRBCs (PNH erythrocytes; [18]): 29.4%; PNH RBC clone size (PNH erythrocytes; [18]): 90.4%; C3d^+ PNHRBCs (PNH erythrocytes; [19]): 57.0%; PNH RBC clone size (PNH erythrocytes; [19]): 96.0%; C3d^+ PNHRBCs (PNH erythrocytes; [20]): 38.8%; PNH RBC clone size (PNH erythrocytes; [20]): 19%; C3d^+ PNHRBCs (PNH erythrocytes; [21]): 14.9%; PNH RBC clone size (PNH erythrocytes; [21]): 71%; C3d^+ PNHRBCs (PNH erythrocytes; Patient H, Week 24, danicopan 200 mg TID + eculizumab 900 mg q14d): 22.8%; C3d^+ PNHRBCs (PNH erythrocytes; [22]): 13.6%; PNH RBC clone size (PNH erythrocytes; [22]): 73%; C3d^+ PNHRBCs (PNH erythrocytes; [23]): 0.400%; PNH RBC clone size (PNH erythrocytes; [23]): 95%; C3d^+ PNHRBCs (PNH erythrocytes; Patient I, Week 24, danicopan 200 mg TID + eculizumab 900 mg q14d): 0.100%; C3d^+ PNHRBCs (PNH erythrocytes; [24]): 34.3%; PNH RBC clone size (PNH erythrocytes; [24]): 60%; C3d^+ PNHRBCs (PNH erythrocytes; [25]): 59.5%; PNH RBC clone size (PNH erythrocytes; [25]): 99%; C3d^+ PNHRBCs (PNH erythrocytes; [26]): 28.7%; PNH RBC clone size (PNH erythrocytes; [26]): 99%; C3d^+ PNHRBCs (PNH erythrocytes; Patient K, Baseline, before danicopan, on eculizumab 900 mg q14d): 20.2%
